# Activity calls are given as the source filed them. The calls are words filed in the database; no cut-off is given here.
# Experiments:
# MDA-MB-231 [1] = assay: Downregulation of hTERT mRNA expression in human MDA-MB-231 cells measured after 48 hrs by qRT-PCR analysis; type: functional, cell-based; details: dose 0-1.5 µM
# MDA-MB-231 [2] = assay: Activation of apoptosis in human MDA-MB-231 cells assessed as downregulation of Bcl-2 protein expression measured after 48 hrs by Western blot analysis; type: functional, cell-based; details: dose 0-1.5 µM
# Quadruplex DNA [3] = assay: Binding affinity to hTERT G4 DNA assessed as change in gibbs free energy at 400 uM by ITC analysis; type: nucleic-acid assay; details: Homo sapiens
# [4] = Upregulation of CCNB3 gene expression in human MDA-MB-231 cells assessed as fold change at 1 uM measured after 48 hrs by RNA-seq analysis relative to control; type: functional
# MDA-MB-231 [5] = assay: Antitumor activity against human MDA-MB-231 cells xenografted in female Balb/c mouse assessed as reduction in tumor weight at 2 mg/kg, iv administered via tail vein every 2 days for 16 days relative to control; type: functional; design: scale not given: the % may be the effect or the level left; details: time 16 day
# Quadruplex DNA [6] = assay: Binding affinity to c-MYC Pu27 G4 DNA (unknown origin) assessed as change in enthalpy at 400 uM by ITC analysis; type: nucleic-acid assay
# MDA-MB-231 [7] = assay: Downregulation of ND5 gene expression in human MDA-MB-231 cells at 1 uM measured after 48 hrs by RNA-seq analysis; type: functional, cell-based
# [8] = Toxicity in female Balb/c nude mouse xenografted with human MDA-MB-231 cells assessed as change in platelet count at 2 to 5 mg/kg, iv administered via tail vein every 2 days for 16 days; type: organism-based; details: in vivo, 384 h, dose 2-5 mg/kg, time 16 day
# [9] = Upregulation of HMOX1 gene expression in human MDA-MB-231 cells assessed as fold change at 1 uM measured after 48 hrs by RNA-seq analysis relative to control; type: functional
# [10] = Upregulation of HLA-C gene expression in human MDA-MB-231 cells assessed as fold change at 1 uM measured after 48 hrs by RNA-seq analysis relative to control; type: functional
# [11] = Upregulation of FTL gene expression in human MDA-MB-231 cells assessed as fold change at 1 uM measured after 48 hrs by RNA-seq analysis relative to control; type: functional
# [12] = Upregulation of SAT2 gene expression in human MDA-MB-231 cells assessed as fold change at 1 uM measured after 48 hrs by RNA-seq analysis relative to control; type: functional
# [13] = Upregulation of SGK1 gene expression in human MDA-MB-231 cells assessed as fold change at 1 uM measured after 48 hrs by RNA-seq analysis relative to control; type: functional
# MDA-MB-231 [14] = assay: Induction of senescence in human MDA-MB-231 cells at 0 to 1.5 uM measured after 48 hrs by SA-beta-gal assay; type: functional, cell-based; details: dose 0-1.5 µM
# MDA-MB-231 [15] = assay: Induction of oxidative stress in human MDA-MB-231 cells assessed as cellular DNA fragmentation at 0 to 1.5 uM measured after 48 hrs by comet assay; type: functional, cell-based; details: dose 0-1.5 µM
# [16] = Toxicity in female Balb/c nude mouse xenografted with human MDA-MB-231 cells assessed as change in hemoglobin concentration at 2 to 5 mg/kg, iv administered via tail vein every 2 days for 16 days; type: organism-based; details: in vivo, 384 h, dose 2-5 mg/kg, time 16 day
# Homo sapiens [17] = species: Homo sapiens; assay: Binding affinity to antisense i-hTERT DNA assessed as thermal stability by measuring change in melting temperature at 400 uM […]
# MDA-MB-231 [18] = assay: Induction of autophagy in human MDA-MB-231 cells assessed as engulfment of damaged mitochondria by lysosomes by measuring lysosome-mitochondria colocalization at 0 to 1.5 uM measured after 48 hrs by LysoTracker Blue DND-22/MitoTracker Deep Red FM staining based confocal microscopic analysis; type: functional, cell-based; details: dose 0-1.5 µM
# [19] = Upregulation of PCBP3 gene expression in human MDA-MB-231 cells assessed as fold change at 1 uM measured after 48 hrs by RNA-seq analysis relative to control; type: functional
# MDA-MB-231 [20] = assay: Induction of autophagy in human MDA-MB-231 cells assessed as upregulation of BNIP3L/Nix protein expression at 0 to 1.5 uM measured after 48 hrs by Western blot analysis; type: functional, cell-based; details: dose 0-1.5 µM
# Quadruplex DNA [21] = assay: Binding affinity to VEGF G4 DNA (unknown origin) assessed as thermal stability by measuring change in melting temperature at 400 uM […]; type: nucleic-acid assay
# [22] = Upregulation of HLA-E gene expression in human MDA-MB-231 cells assessed as fold change at 1 uM measured after 48 hrs by RNA-seq analysis relative to control; type: functional
# [23] = Selectivity ratio of binding affinity to human TERT G4 DNA to binding affinity to RET G4 DNA (unknown origin)
# MDA-MB-231 [24] = assay: Induction of ferroptosis in human MDA-MB-231 cells assessed as increase in ROS production measured after 48 hrs by Hoechst 33342 staining based confocal microscopic analysis; type: functional, cell-based; details: dose 0-1.5 µM
# [25] = Selectivity ratio of binding affinity to human TERT G4 DNA to binding affinity to Bcl-2 G4 DNA (unknown origin)
# MDA-MB-231 [26] = assay: Induction of ferroptosis in human MDA-MB-231 cells assessed as reduction in GPX4 protein expression at 0 to 1.5 uM measured after 48 hrs by Western blot analysis; type: functional, cell-based; details: dose 0-1.5 µM
# [27] = Upregulation of RRAS gene expression in human MDA-MB-231 cells assessed as fold change at 1 uM measured after 48 hrs by RNA-seq analysis relative to control; type: functional
# MDA-MB-231 [28] = assay: Induction of telomere dysfunction in human MDA-MB-231 cells assessed as cellular senescence at 0.2 uM measured after 10 days by SA-beta-gal staining based analysis; type: functional, cell-based; details: time 10.0 day
# MDA-MB-231 [29] = assay: Cytotoxicity against human MDA-MB-231 cells transfected with hTERT-pcDNA3.1(+)-C-eBFP overexpressing hTERT assessed as inhibition of cell growth measured after 48 hrs by MTT assay; type: functional, cell-based; details: MDA-MB-231, 48 h
# Homo sapiens [30] = species: Homo sapiens; assay: Binding affinity to antisense i-hTERT DNA assessed as change in enthalpy at 400 uM by ITC analysis
# MDA-MB-231 [31] = assay: Disruption of energy metabolism in human MDA-MB-231 cells assessed as increase in ECAR at 0 to 1.5 uM measured after 2 hrs by Seahorse XF24 analyzer; type: functional, cell-based; details: dose 0-1.5 µM
# [32] = Selectivity ratio of binding affinity to human TERT G4 DNA to binding affinity to Ckit-2 G4 DNA (unknown origin)
# Quadruplex DNA [33] = assay: Binding affinity to Bcl-2 G4 DNA (unknown origin) assessed as change in enthalpy at 400 uM by ITC analysis; type: nucleic-acid assay
# Quadruplex DNA [34] = assay: Binding affinity to c-MYC Pu27 G4 DNA (unknown origin) assessed as thermal stability by measuring change in melting temperature at 400 uM […]; type: nucleic-acid assay
# MDA-MB-231 [35] = assay: Inhibition of hTERT expression in human MDA-MB-231 cells assessed as reduction in pink foci in cytoplasm at 0.5 uM incubated for 48 hrs in presence of TBHP at 200 uM by immunofluorescence analysis; type: functional, cell-based
# MDA-MB-231 [36] = assay: Antitumor activity against human MDA-MB-231 cells xenografted in female Balb/c mouse assessed as reduction in tumor weight at 5 mg/kg, iv administered via tail vein every 2 days for 16 days relative to control; type: functional; design: scale not given: the % may be the effect or the level left; details: time 16 day
smiles,measurement,setting,value
C[n+]1c(/C=C/c2c[nH]c3ccccc23)cc(/C=C2\Sc3ccccc3N2CCCN2CCC(C(F)(F)F)CC2)c2ccccc21.[I-],Activity,MDA-MB-231 [1],Dose-Dependent Effect
same,Activity,MDA-MB-231 [2],Dose-Dependent Effect
same,deltaG,Quadruplex DNA [3],-8.11 kcal/mol
same,fold change (FC),[4],>2
same,Activity,MDA-MB-231 [5],48.7%
same,deltaH,Quadruplex DNA [6],-2.44 kcal/mol
same,Activity,MDA-MB-231 [7],Active
same,Activity,[8],Non-Toxic
same,fold change (FC),[9],>2
same,fold change (FC),[10],>2
same,fold change (FC),[11],>2
same,fold change (FC),[12],>2
same,fold change (FC),[13],>2
same,Activity,MDA-MB-231 [14],Active
same,Activity,MDA-MB-231 [15],Active
same,Activity,[16],Non-Toxic
same,ΔTm,Homo sapiens [17],8.82 °C
same,Activity,MDA-MB-231 [18],Active
same,fold change (FC),[19],>2
same,Activity,MDA-MB-231 [20],Active
same,ΔTm,Quadruplex DNA [21],0.72 °C
same,fold change (FC),[22],>2
same,Selectivity ratio,[23],2
same,Activity,MDA-MB-231 [24],Dose-Dependent Effect
same,Selectivity ratio,[25],2
same,Activity,MDA-MB-231 [26],Active
same,fold change (FC),[27],>2
same,Activity,MDA-MB-231 [28],Active
same,IC50,MDA-MB-231 [29],3.3 µM
same,deltaH,Homo sapiens [30],-1.2 kcal/mol
same,Activity,MDA-MB-231 [31],Active
same,Selectivity ratio,[32],2
same,deltaH,Quadruplex DNA [33],-2.34 kcal/mol
same,ΔTm,Quadruplex DNA [34],2.59 °C
same,inhibition,MDA-MB-231 [35],Active
same,Activity,MDA-MB-231 [36],78.7%

# Reference: ChEMBL document CHEMBL5550185, “Targeting hTERT Promoter G-Quadruplex DNA Structures with Small-Molecule Ligand to Downregulate hTERT Expression for Triple-Negative Breast Cancer Therapy” (J Med Chem, 2024)
